For 10 molecules, viability and IC50 results are on record in ChEMBL document CHEMBL5131428, “Discovery of potent antiproliferative agents from selected oxygen heterocycles as EGFR tyrosine kinase inhibitors from the U.S. National Cancer Institute database by in silico screening and bioactivity evaluation” (Bioorg Med Chem Lett, 2022).

A value given as a limit tells only on which side of the number the result lay.

Assay [1] has as its system A-431. Description: Antiproliferative activity against human A-431 cells overexpressing EGFR assessed as cell survival at 10 uM relative to control. Type of assay: functional. To be noted: read-out: Survival.
For a further assay, the system named is HeLa. Description: Antiproliferative activity against human HeLa cells assessed as cell growth inhibition by MTT assay. Type of assay: functional, cell-based. On the technique in general: Formazan colour is commonly taken as a measure of viable cells.
Assay [2] has as its system A-431. Description: Antiproliferative activity against human A-431 cells overexpressing EGFR assessed as cell growth inhibition by MTT assay. Type of assay: functional, cell-based.
The target of assay [3] is T1, Epidermal growth factor receptor (Homo sapiens, UniProt P00533). Description: Inhibition of EGFR tyrosine kinase (unknown origin).
The target of assay [4] is T1, Epidermal growth factor receptor. Description: Inhibition of EGFR tyrosine kinase (unknown origin) preincubated for 5 mins followed by substrate addition and further incubated for 10 mins in presence of ATP by fluorescence based microplate reader analysis.

T1 sequence (P00533 whole entry): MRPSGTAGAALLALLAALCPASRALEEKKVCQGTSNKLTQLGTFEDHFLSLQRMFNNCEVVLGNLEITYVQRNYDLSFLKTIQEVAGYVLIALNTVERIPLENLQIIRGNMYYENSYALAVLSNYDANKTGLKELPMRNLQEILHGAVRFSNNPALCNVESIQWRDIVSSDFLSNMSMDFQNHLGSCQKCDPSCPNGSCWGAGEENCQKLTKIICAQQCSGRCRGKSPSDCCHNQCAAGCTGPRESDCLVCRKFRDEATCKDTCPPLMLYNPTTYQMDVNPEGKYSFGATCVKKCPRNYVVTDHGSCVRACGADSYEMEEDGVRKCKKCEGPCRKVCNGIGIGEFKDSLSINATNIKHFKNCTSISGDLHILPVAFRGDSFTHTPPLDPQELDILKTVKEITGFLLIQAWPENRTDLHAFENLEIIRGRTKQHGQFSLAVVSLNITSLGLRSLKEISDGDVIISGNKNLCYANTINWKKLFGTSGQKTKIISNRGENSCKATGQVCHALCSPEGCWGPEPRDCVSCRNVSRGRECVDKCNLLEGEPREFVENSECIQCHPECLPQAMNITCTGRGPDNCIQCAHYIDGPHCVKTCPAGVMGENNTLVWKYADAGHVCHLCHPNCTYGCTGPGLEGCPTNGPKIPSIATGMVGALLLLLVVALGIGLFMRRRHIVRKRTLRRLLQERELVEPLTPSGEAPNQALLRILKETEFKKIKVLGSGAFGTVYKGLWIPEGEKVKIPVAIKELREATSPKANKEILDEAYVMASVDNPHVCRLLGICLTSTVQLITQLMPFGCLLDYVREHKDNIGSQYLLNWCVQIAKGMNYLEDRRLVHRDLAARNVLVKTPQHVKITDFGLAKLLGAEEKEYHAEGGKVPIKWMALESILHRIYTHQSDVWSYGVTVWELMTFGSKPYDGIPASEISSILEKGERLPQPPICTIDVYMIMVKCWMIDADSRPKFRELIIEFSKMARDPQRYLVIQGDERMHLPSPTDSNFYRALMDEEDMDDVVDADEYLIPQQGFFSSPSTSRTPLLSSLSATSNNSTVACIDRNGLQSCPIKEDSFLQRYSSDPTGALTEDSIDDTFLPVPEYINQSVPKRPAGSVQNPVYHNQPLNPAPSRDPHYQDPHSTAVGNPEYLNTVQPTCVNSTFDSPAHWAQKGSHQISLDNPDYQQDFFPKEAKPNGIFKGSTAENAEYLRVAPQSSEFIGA

As to `O=c1c2ccccc2oc2cc([C@H](O)c3ccccc3)ccc12`, the viability at 10 µM with A-431 [1] is 57%.

For the molecule `C=CC(C)(C)c1c2c(c(O)c3c(=O)c4ccc(O)c(O)c4oc13)C=CC(C)(C)O2` [MACLURAXANTHONE], the viability at 10 µM in the assay with A-431 [1] is 49%. For the same molecule, the IC50 – broadly, the concentration that inhibits the measured activity by half – with HeLa came out at 0.95 µM; in the assay with A-431 [2], 2.84 µM.

Take `COc1ccc(-c2cc(=O)cc(-c3ccc(OC)cc3)o2)cc1`: the values for the IC50 (in assay [3]; in the assay with HeLa; in the assay with A-431 [2]) were 0.00015 µM, 8.12 µM and 3.81 µM, respectively. For the same molecule, the viability at 10 µM in the assay with A-431 [1] was less than 6%.

`COC1=CC(=C(c2ccc(O)c(OC)c2)c2ccc(O)c(OC)c2)C=CC1=O`: the viability at 10 µM in the assay on A-431 [1] stood at 57%.

For the molecule `Cc1c2cc(O)c(=O)cc-2oc2cc(O)c(O)cc12`, in the assay with A-431 [1], the viability at 10 µM amounted to 57%.

In the case of `COc1c(O)cc2oc3cc(O)c(CC=C(C)C)c(O)c3c(=O)c2c1CC=C(C)C` [MANGOSTIN], in the assay with A-431 [1], the viability at 10 µM is less than 6%. The half-inhibitory concentration (IC50) in the assay on HeLa amounted to 12 µM; in the assay with A-431 [2] it was 7.2 µM.

As to `CCc1ccc(C2=C(O)C(=O)C(c3ccc(CC)cc3)=C(O)C2=O)cc1`, the 50% inhibitory concentration (IC50) in assay [3] amounted to 0.0302 µM; in the assay on HeLa it was 17.3 µM; with A-431 [2], 17.7 µM. In addition, the viability at 10 µM with A-431 [1] turned out to be 17%.

Regarding `O=C1c2ccccc2C(=O)c2c(O)c3c(c(O)c21)CCCC3`, in the assay on A-431 [1], the viability at 10 µM was 57%.

Take `COc1cccc2c1C(=O)C1=C(C2=O)c2c(O)cc(CO)cc2[C@@H](O)[C@@H]1O`: the values for the concentration for half-maximal inhibition (IC50) (in assay [3]; in the assay on HeLa; in the assay on A-431 [2]) were 0.00654 µM, 1.74 µM and 6.04 µM, respectively. In addition, the viability at 10 µM in the assay with A-431 [1] was less than 6%.

`O=c1c2cccc(O)c2oc2cccc(O)c12`: in assay [4], the half-inhibitory concentration (IC50) was 0.9 µM.
